# From PubChem BioAssay (NCI)
# “And” between values parts separate entries of the source, which are not always exact repeats. Identical values can stand only once.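 96-well plates; 48 h exposure; 5 concentrations. Endpoints by linear interpolation between flanking doses. Not reached: highest tested concentration assigned. The concentration for 50% growth inhibition is given as GI50. Definition used: TGI = concentration required for complete inhibition of growth.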
# Experiments:
# Assay in all cases: DTP human tumour cell line panel, 48 h
# [1] = tested on: BT-549 breast
# [2] = tested on: COLO 205 colon
# [3] = tested on: HOP-92 NSCLC
# [4] = tested on: MALME-3M melanoma
# [5] = tested on: MCF7 breast
# [6] = tested on: MOLT-4 leukemia
# [7] = tested on: OVCAR-3 ovarian
# [8] = tested on: RPMI-8226 leukemia
# [9] = tested on: SK-MEL-28 melanoma
# [10] = tested on: SN12C renal
Structure (SMILES),GI50 [1],TGI [1],GI50 [2],TGI [2],GI50 [3],TGI [3],GI50 [4],TGI [4],GI50 [5],TGI [5],GI50 [6],TGI [6],GI50 [7],TGI [7],GI50 [8],TGI [8],GI50 [9],TGI [9],GI50 [10],TGI [10]
N#Cc1ccc(N2Cc3cc(Cl)ccc3OC3=C2C(=O)N(Cc2ccc(F)cc2)C3=O)cc1,0.174 µM,0.356 µM,1.57 µM,3.65 µM,0.58 µM,1.32 µM,0.559 µM,1.13 µM,0.712 µM,3.03 µM,0.291 µM,1.26 µM,0.494 µM,0.96 µM,0.252 µM,0.814 µM,0.558 µM,1.13 µM,0.567 µM,1.19 µM
Cc1cc(N2CCN(C)CC2)nc(N(CCNc2ccnc3cc(Cl)ccc23)Cc2ccco2)n1,2.94 µM,11.8 µM,1.88 µM,5.18 µM,3.1 µM,14.9 µM,1.94 µM,3.71 µM,2.12 µM,6.89 µM,2.8 µM,10.9 µM,2.62 µM,9.95 µM,2.18 µM,5.72 µM,1.71 µM,3.31 µM,8.88 µM,21 µM
O=C(NC1CCNCC1)c1[nH]ncc1NC(=O)c1c(Cl)cccc1Cl,0.588 µM and 0.471 µM,7.89 µM,0.218 µM and 0.182 µM,0.558 µM and 0.726 µM,0.323 µM and 0.222 µM,0.671 µM,0.325 µM and 0.257 µM,1.68 µM and 1.03 µM,0.198 µM and 0.18 µM,> 100 µM,0.357 µM and 0.329 µM,1.49 µM and > 10 µM,0.325 µM and 0.386 µM,> 27.9 µM,0.329 µM and 0.313 µM,0.999 µM and > 2.62 µM,0.43 µM and 0.568 µM,2.32 µM and 3.96 µM,1.24 µM and 0.387 µM,> 50.3 µM
CCCCCCCCCCCCNC(=O)[C@H]1CSC(c2cc(Br)cs2)N1 (stereo partly specified),0.894 µM,1.78 µM,8.16 µM,16 µM,4.61 µM,11.5 µM,3.68 µM,10.2 µM,2.16 µM,8.82 µM,0.774 µM,1.76 µM,1.15 µM,2.38 µM,1.38 µM,3.61 µM,0.759 µM,1.49 µM,1.11 µM,2.56 µM
O=C(N/N=C/c1ccncc1)c1ccc(C(F)(F)F)nc1Nc1cccc(C(F)(F)F)c1,0.613 µM,3.59 µM,2.57 µM,7.51 µM,–,–,2 µM,6.99 µM,2.27 µM,8.52 µM,2.53 µM,9.1 µM,2.65 µM,7.74 µM,0.514 µM,4.05 µM,3.48 µM,14.2 µM,2.37 µM,11.5 µM
O=Cc1c[nH]c2ccc(-c3csc4ccccc34)cc12,2.5 µM,8.75 µM,4.46 µM,> 100 µM,7.06 µM,84.7 µM,4.39 µM,37.5 µM,3.48 µM,> 100 µM,3.1 µM,19.1 µM,2.01 µM,5.03 µM,1.54 µM,7.49 µM,5.49 µM,> 100 µM,–,–
O=C1/C(=C\c2ccc([N+](=O)[O-])cc2)CS(=O)(=O)C/C1=C/c1ccc([N+](=O)[O-])cc1,–,0.845 µM and 1.12 µM,0.252 µM,0.983 µM and 0.645 µM,0.258 µM,0.656 µM and 6.43 µM,0.32 µM,2.12 µM,0.157 µM,2.12 µM,–,–,0.0761 µM,0.329 µM and 0.754 µM,–,0.547 µM,0.188 µM,0.444 µM and 3.59 µM,0.344 µM and 0.366 µM,1.56 µM
O=c1c(-c2ccc3c(c2)OCO3)coc2c(CO)c(O)ccc12,1.47 µM,3.41 µM,20.9 µM,45.5 µM,2.02 µM,4.86 µM,1.57 µM,3.47 µM,2.72 µM,25.4 µM,30.2 µM,> 100 µM,2.07 µM,4.26 µM,3.64 µM,53.6 µM,5.91 µM,22.7 µM,1.82 µM,5.51 µM
C/C(=C\CCc1ccsc1)CC/C=C(\C)CCCN1CCN(CCO)CC1,2.78 µM,10.9 µM,1.89 µM,3.95 µM,1.73 µM,7.48 µM,1.87 µM,3.73 µM,2.85 µM,8.56 µM,2.48 µM,6.29 µM,3.16 µM,11.2 µM,1.92 µM,4.57 µM,1.87 µM,3.91 µM,4.13 µM,19.2 µM
Cc1ccc(C2NC(=S)N3C(c4ccc(C)cc4)NC(=S)N23)cc1 (stereo unspecified),10.3 µM,23.7 µM,6.07 µM,18.5 µM,–,–,12.4 µM,28.1 µM,2.73 µM,12.9 µM,5.82 µM,18.9 µM,3.26 µM,11.5 µM,–,–,11.5 µM,24.2 µM,5.88 µM,19.4 µM
COc1ccccc1N(C(C)=O)C1=C(Cl)C(=O)c2ccccc2C1=O,1.89 µM,8.25 µM,1.51 µM,2.84 µM,0.304 µM,1.85 µM,1.66 µM,3.2 µM,2.4 µM,10.5 µM,2.94 µM,> 25.1 µM,1.15 µM,2.72 µM,0.833 µM,3.96 µM,2.4 µM,7.03 µM,2.83 µM,12.1 µM
CCOC(=O)c1c(C(F)(F)F)n([O-])c2ccc(Cl)cc2[n+]1=O,2.02 µM,4.95 µM,1.65 µM,3.29 µM,1.17 µM,2.64 µM,1.73 µM,3.42 µM,1.98 µM,4.24 µM,2.32 µM,5.18 µM,2.11 µM,3.93 µM,2.07 µM,5.13 µM,1.89 µM,3.58 µM,2.23 µM,10.3 µM
Oc1[nH]c2ccc(Cl)cc2c1/C=c1/ccc2c(c1)N=C(c1ccc(C(F)(F)F)cc1)N=2,1.87 µM,4.75 µM,2.1 µM,4.13 µM,1.68 µM,4.35 µM,2.34 µM,6.57 µM,2.25 µM,7.64 µM,2.41 µM,6.19 µM,1.56 µM,3.21 µM,2.21 µM,5.44 µM,2.35 µM,6.71 µM,2.37 µM,6.72 µM
Nc1ncnc2c1nc(N)n2C1OC(CO)C(O)C1O (stereo unspecified),1.65 µM,3.36 µM,0.142 µM,1.16 µM,0.34 µM,1.83 µM,–,–,0.389 µM,10.4 µM,1.76 µM,> 24.4 µM,0.892 µM,4.75 µM,0.973 µM,6.48 µM,0.267 µM,1.33 µM,0.418 µM,3.21 µM
Cc1cc(NS(=O)(=O)c2ccc(NC(=O)COc3ccc(-c4cc5ccccc5[nH]4)cc3)cc2)no1,2.12 µM,5.97 µM,1.78 µM,3.27 µM,1.3 µM,3.83 µM,1.5 µM,3.85 µM,2.08 µM,4.69 µM,2.05 µM,9.72 µM,1.72 µM,3.75 µM,2.87 µM,> 100 µM,1.55 µM,3.17 µM,2.24 µM,10.4 µM
Cc1ccc2nc3sc(=O)sc3nc2c1,–,28.7 µM,–,27.8 µM,–,28.9 µM,–,–,–,31.4 µM,–,50.1 µM,–,27.7 µM,–,59.1 µM,–,48.9 µM,–,29 µM
CC(=O)Nc1cc(C(c2ccccc2)c2ccccc2)cc(C(c2ccccc2)c2ccccc2)c1C,8.2 µM,> 100 µM,7.36 µM,> 100 µM,4.68 µM,> 100 µM,9.59 µM,> 100 µM,4.77 µM,> 100 µM,–,–,7.33 µM,> 100 µM,1.88 µM,7.67 µM,> 100 µM,> 100 µM,27.5 µM,> 100 µM
O=C1c2cccc3cccc(c23)C(=O)N1CC#Cc1ccc2c3c(cccc13)C(=O)N(CCN1CCNCC1)C2=O,9.51 µM,34.4 µM,3.3 µM,12.4 µM,4 µM,20.5 µM,1.84 µM,3.7 µM,1.8 µM,3.72 µM,2.17 µM,5.07 µM,3.6 µM,12.4 µM,2.12 µM,4.49 µM,1.9 µM,3.55 µM,1.71 µM,3.68 µM
O=C(O)c1ccccc1-c1ccccc1C(=O)Nc1ccc2c(c1)Cc1ccccc1-2,–,69.4 µM,–,31.2 µM,–,> 100 µM,–,> 100 µM,–,> 100 µM,–,–,–,69.9 µM,–,70.4 µM,–,> 100 µM,–,> 100 µM
Cc1cn(C2CC(N=[N+]=[N-])C(CO)O2)c(=O)[nH]c1=O (stereo unspecified),–,> 1000 µM,433 µM,> 1000 µM,> 1000 µM,> 1000 µM,> 1000 µM,> 1000 µM,50.1 µM,> 1000 µM,> 1000 µM,> 1000 µM,> 1000 µM,> 1000 µM,20.4 µM,184 µM,–,–,> 1000 µM,> 1000 µM
Nc1nc2c(c(=O)[nH]1)N=C(COP(=O)(O)OP(=O)(O)O)CN2,–,> 100 µM,–,> 100 µM,–,–,–,> 100 µM,–,> 100 µM,–,> 100 µM,–,–,–,> 100 µM,–,> 100 µM,–,> 100 µM
O=[N+]([O-])c1ccc(N/N=C/c2ccccc2O)nc1,6.08 µM,> 100 µM,0.544 µM,> 100 µM,3.74 µM,> 100 µM,5.8 µM,> 100 µM,0.928 µM,> 100 µM,–,–,0.368 µM,> 100 µM,0.86 µM,> 100 µM,4.38 µM,> 100 µM,2.17 µM,> 100 µM
CS(=O)/C(C#N)=C\C=C\c1cccc(Cl)c1 (stereo unspecified),2 µM,11.9 µM,2.25 µM,4.44 µM,2.93 µM,7 µM,–,–,0.579 µM,5.72 µM,2.54 µM,16.4 µM,2.45 µM,10.1 µM,2.44 µM,12 µM,2.68 µM,9.78 µM,2.74 µM,12.2 µM
O=c1[nH]cc(CO)c(=O)[nH]1,> 100 µM,> 100 µM,> 100 µM,> 100 µM,> 100 µM,> 100 µM,> 100 µM,> 100 µM,> 100 µM,> 100 µM,> 100 µM,> 100 µM,> 100 µM,> 100 µM,–,–,> 100 µM,> 100 µM,> 100 µM,> 100 µM
c1cc2ccc3cc2cc1CNCCOCCNCc1ccc2ccc(cc2c1)CNCCOCCNC3,> 100 µM,> 100 µM,> 100 µM,> 100 µM,–,–,> 100 µM,> 100 µM,> 100 µM,> 100 µM,> 100 µM,> 100 µM,> 100 µM,> 100 µM,–,–,> 100 µM,> 100 µM,> 100 µM,> 100 µM
COc1cc2c(cc1OCc1ccccc1)N=C[C@@H]1C[C@@H](F)CN1C2=O,–,0.785 µM,0.583 µM,9.64 µM,–,–,1.58 µM,3.13 µM,0.275 µM,2.32 µM,0.353 µM,> 100 µM,0.315 µM,0.787 µM,< 0.0501 µM,–,0.748 µM,13.7 µM,0.273 µM,3.4 µM
CCOP(=O)(CCN1CCN(CCCCCOc2cc3c(cc2OC)C(=O)N2CCC[C@H]2C=N3)CC1)OCC,5.96 µM,31.7 µM,3.39 µM,12.9 µM,12.6 µM,94.9 µM,18.4 µM,47.7 µM,1.89 µM,23.8 µM,2.16 µM,6.37 µM,7.48 µM,34.1 µM,–,–,6.35 µM,20.4 µM,5.18 µM,> 100 µM
